In ChEMBL document CHEMBL3286126, “Synthesis of novel β-carboline based chalcones with high cytotoxic activity against breast cancer cells” (Bioorg Med Chem Lett, 2014):
The source made the active and inactive calls. The calls are words filed in the database; no cut-off is given here.

Key:
[1] = Cytotoxicity against human DLD1 cells at 10 uM after 48 hrs by SRB assay; format: functional; details: DLD-1, 48 h
[2] = Cytotoxicity against human MIAPaCa2 cells at 10 uM after 48 hrs by SRB assay; format: functional; details: MIA PaCa-2, 48 h
DU-145 = assay: Cytotoxicity against human DU145 cells at 10 uM after 48 hrs by SRB assay; format: functional; details: DU-145, 48 h
MCF7 [3] = assay: Cytotoxicity against human MCF7 cells at 10 uM after 48 hrs by SRB assay; format: functional; details: MCF7, 48 h
SK-OV-3 [4] = assay: Cytotoxicity against human SKOV3 cells at 10 uM after 48 hrs by SRB assay; format: functional; details: SK-OV-3, 48 h
[5] = Cytotoxicity against human PLC/PRF/5 cells at 10 uM after 48 hrs by SRB assay; format: functional; details: PLC-PRF-5, 48 h
A549 [6] = assay: Cytotoxicity against human A549 cells at 10 uM after 48 hrs by SRB assay; format: functional; details: A549, 48 h
[7] = Cytotoxicity against human A172 cells at 10 uM after 48 hrs by SRB assay; format: functional; details: A 172, 48 h
MCF7 [8] = assay: Induction of apoptosis in human MCF7 cells assessed as late apoptotic cells after 24 hrs using 7-AAD/annexin-V staining by flow cytometry analysis; format: functional
MCF7 [9] = assay: Induction of apoptosis in human MCF7 cells assessed as early apoptotic cells after 24 hrs using 7-AAD/annexin-V staining by flow cytometry analysis; format: functional
MCF7 [10] = assay: Induction of apoptosis in human MCF7 cells assessed as DNA fragmentation at 10 uM after 24 hrs […] by APOBrdU TUNNEL assay; format: functional, cell-based
MCF7 [11] = assay: Cytotoxicity against human MCF7 cells after 48 hrs by SRB assay; format: functional, cell-based; details: for IC50: MCF7, 48 h
MCF7 [12] = assay: Induction of apoptosis in human MCF7 cells assessed as necrotic cells after 24 hrs using 7-AAD/annexin-V staining by flow cytometry analysis; format: functional
4T1 = assay: Cytotoxicity against mouse 4T1 cells after 48 hrs by SRB assay; format: functional, cell-based
MDA-MB-231 = assay: Cytotoxicity against human MDA-MB-231 cells after 48 hrs by SRB assay; format: functional, cell-based
SK-OV-3 [13] = assay: Cytotoxicity against human SKOV3 cells after 48 hrs by SRB assay; format: functional, cell-based; details: SK-OV-3, 48 h
MCF7 [14] = assay: Induction of apoptosis in human MCF7 cells assessed as viable cells after 24 hrs using 7-AAD/annexin-V staining by flow cytometry analysis; format: functional
Vero = assay: Cytotoxicity against African green monkey Vero cells after 48 hrs by SRB assay; format: cell-based; details: Chlorocebus sabaeus
PC-3 = assay: Cytotoxicity against human PC3 cells after 48 hrs by SRB assay; format: functional, cell-based; details: PC-3, 48 h
A549 [15] = assay: Cytotoxicity against human A549 cells after 48 hrs by SRB assay; format: functional, cell-based; details: A549, 48 h
[16] = Cytotoxicity against human A172 cells after 48 hrs by SRB assay; format: functional, cell-based; details: A 172, 48 h

| Compound | inhibition at 10 µM [1] [%] | inhibition at 10 µM [2] [%] | inhibition at 10 µM (DU-145) [%] | inhibition at 10 µM (MCF7 [3]) [%] | inhibition at 10 µM (SK-OV-3 [4]) [%] | inhibition at 10 µM [5] [%] | inhibition at 10 µM (A549 [6]) [%] | inhibition at 10 µM [7] [%] | also measured |
| --- | --- | --- | --- | --- | --- | --- | --- | --- | --- |
| Cn1c2ccccc2c2ccnc(/C=C/C(=O)c3ccccc3)c21 | 67.5 | 25.5 | 53.2 | 27.2 | 28.6 | 64.9 | 19.3 | 75.5 | – |
| O=C(/C=C/c1nccc2c1[nH]c1ccccc12)c1ccccc1 | 70.1 | 21.7 | 20.1 | 32.9 | 0.91 | 76.7 | 11.7 | 78.4 | – |
| CCn1c2ccccc2c2ccnc(/C=C/C(=O)c3ccc(OC)cc3)c21 | 55.5 | 9.18 | 52.5 | 27.2 | 43.7 | 61.6 | 21.2 | 39.2 | – |
| O=C(/C=C/c1nccc2c1[nH]c1ccccc12)c1ccc(Br)cc1 | 14.9 | -4.72 | -0.24 | 7.15 | -2.43 | 26.4 | 9.19 | 5.41 | – |
| COc1ccc(C(=O)/C=C/c2nccc3c4ccccc4n(C)c23)cc1 | 28.2 | -0.03 | 9.1 | 8.18 | 37.4 | 16.9 | -3.88 | 0.18 | – |
| Cc1ccc(C(=O)/C=C/c2nccc3c4ccccc4n(C)c23)cc1 | 35.8 | 13.7 | 45.7 | 20.8 | 46.2 | 32.2 | 13.2 | 19.2 | – |
| CCn1c2ccccc2c2ccnc(/C=C/C(=O)c3ccc(C)cc3)c21 | 44.1 | 11.9 | 35 | 30 | 47.7 | 34.1 | 16.4 | 26.6 | – |
| O=C(/C=C/c1nccc2c1[nH]c1ccccc12)c1ccc(F)cc1 | 25.6 | -4.04 | -5.2 | 9.92 | 8.15 | 49.9 | 6.73 | 16.2 | – |
| CCn1c2ccccc2c2ccnc(/C=C/C(=O)c3ccc(OC)c(OC)c3)c21 | 66 | 15.3 | 56.8 | 29.6 | 57.6 | 56.2 | 35.6 | 70.1 | – |
| COc1ccc(C(=O)/C=C/c2nccc3c4ccccc4n(C)c23)cc1OC | 45.3 | 7.71 | 34.1 | 12.9 | 68.7 | 42.4 | 19.6 | 15.5 | – |
| COc1ccc(C(=O)/C=C/c2nccc3c2[nH]c2ccccc23)cc1OC | 88.1 | 87.5 | 71.9 | 94.5 | 41.6 | 78.3 | 84.7 | 74.3 | Activity (MCF7 [8]): 39.5%; Activity (MCF7 [9]): 20.4%; Activity (MCF7 [10]): Active; Activity (MCF7 [11]): Dose-dependent effect; IC50 (MCF7 [11]): 2.25 µM; Activity (MCF7 [12]): 3.12%; Activity (4T1): Dose-dependent effect; Activity (MDA-MB-231): Dose-dependent effect; IC50 (SK-OV-3 [13]): > 10 µM; Activity (MCF7 [14]): 37%; IC50 (Vero): > 10 µM; IC50 (PC-3): 5.99 µM; IC50 (A549 [15]): 2.31 µM; IC50 [16]: 3.33 µM |
| COc1cc(C(=O)/C=C/c2nccc3c2[nH]c2ccccc23)cc(OC)c1OC | 80.6 | 84.8 | 76.1 | 86.8 | 36.6 | 73.9 | 73.4 | 65 | Activity (MCF7 [11]): Dose-dependent effect; IC50 (MCF7 [11]): 3.29 µM; Activity (4T1): Dose-dependent effect; Activity (MDA-MB-231): Dose-dependent effect; IC50 (SK-OV-3 [13]): > 10 µM; IC50 (Vero): > 10 µM; IC50 (PC-3): > 10 µM; IC50 (A549 [15]): 5.41 µM; IC50 [16]: > 10 µM |
| O=C(/C=C/c1nccc2c1[nH]c1ccccc12)c1ccc(Cl)cc1 | 41.2 | -13.1 | 7.63 | 15 | 0.2 | 80.5 | 4.68 | 75.8 | – |
| COc1cc(C(=O)/C=C/c2nccc3c4ccccc4n(C)c23)cc(OC)c1OC | 49.5 | 19 | 59.5 | 28.8 | 37.4 | 40.1 | 33.8 | 38.8 | – |
| Cc1ccc(C(=O)/C=C/c2nccc3c2[nH]c2ccccc23)cc1 | 42.4 | 2.1 | 11.4 | 20.9 | 5.1 | 70.5 | 9.91 | 60.5 | – |
| COc1ccc(C(=O)/C=C/c2nccc3c2[nH]c2ccccc23)cc1 | 74.2 | 33.7 | 61.9 | 37.2 | 33.9 | 70.8 | 29.2 | 77.2 | – |
| COc1cccc2c1C(=O)c1c(O)c3c(c(O)c1C2=O)C[C@@](O)(C(=O)CO)C[C@@H]3O[C@H]1C[C@H](N)[C@H](O)[C@H](C)O1 [DOXORUBICIN] | 73.2 | 85.1 | 73.9 | 56.9 | 69.2 | 90.7 | 69 | 67.6 | – |
| CCn1c2ccccc2c2ccnc(/C=C/C(=O)c3ccccc3)c21 | 77.6 | 25 | 54.2 | 39.3 | 33.5 | 75.1 | 12.5 | 80.5 | – |
| CCn1c2ccccc2c2ccnc(/C=C/C(=O)c3cc(OC)c(OC)c(OC)c3)c21 | 73.4 | 24.7 | 60.1 | 32.7 | 68.5 | 70.7 | 44.4 | 81.1 | – |
